In patent publication US5789440A, “5,6-dihydropyrone derivatives as protease inhibitors and antiviral agents” (Warner-Lambert Company, priority 1994, dated 1998):
≈ marks a conversion by molar mass, not a printed value.

Columns and labels:
[1] = tested on: Streptococcus pyogenes C203; experiment: Antibacterial activity, microtitration dilution method; assay type: cell-based; details: read-out: minimum inhibitory concentration (MIC)
Excerpt: (§1) The compounds of the invention display antibacterial activity when tested by the microtitration dilution method as described in Heifetz, et al., Antimicr. Agents. & Chemoth. 6: 124 (1974) which is incorporated herein by reference.
(§2) By use of the above referenced method, the following minimum inhibitory concentration values (MICs in μg/mL) were obtained for representative compounds of the invention vs. clinically relevant gram positive pathogens which have become highly resistant to conventional therapy in recent years.

[2] = tested on: Staphylococcus aureus UC-76; experiment: as above; assay type: cell-based; details: UC76, read-out: minimum inhibitory concentration (MIC)
Excerpt: as §1, §2

[3] = tested on: Staphylococcus aureus H228; experiment: as above; assay type: cell-based; details: read-out: minimum inhibitory concentration (MIC)
Excerpt: as §1, §2

[4] = tested on: Enterococcus foecalis MGH2; experiment: as above; assay type: cell-based; details: read-out: minimum inhibitory concentration (MIC)
Excerpt: as §1, §2

[5] = tested on: Streptococcus pneumonia 5V-1; experiment: as above; assay type: cell-based; details: Streptococcus pneumoniae, 5V1, read-out: minimum inhibitory concentration (MIC)
Excerpt: as §1, §2

[6] = molecular target: T1, HIV-1 Protease (Human immunodeficiency virus type 1 group M subtype B, UniProt P04585); experiment: HIV protease inhibition (undecapeptide substrate cleavage, HPLC); assay type: biochemical; details: 37° C., 5 min, 40 μM substrate, pH 4.7, 2% DMSO, read-out: 50% INHIBITION CONCENTRATION
T1 construct: HIV-1 Protease; purchased Bachem Bioscience Inc
Procedure: 1.0 mM dithiothreitol (DTT) was prepared fresh daily in 0.1% polyethylene glycol (mw 8000) 80 mM NaOAc, 160 mM NaCl, 1.0 mM EDTA, and brought to pH 4.7 with HCl.
The enzyme is obtained from Bachem Bioscience Inc. The undiluted enzyme is thawed from -80° C. and diluted 50-fold with DTT buffer. The solution is always kept at 0° C. on ice water and used in the experiment within 20 minutes after thawing.
Substrate III from Bachem Bioscience Inc. is the undecapeptide H-His-Lys-Ala-Arg-Val-Leu-p-Nitrophenylalanine-Glu-Ala-Norleucine-Ser-NH2 (>97% purity). A 200 μM stock solution in DTT buffer is prepared and stored on ice. Substrate solution is prepared fresh daily.
10 mM inhibitor (I) in dimethyl sulfoxide (DMSO) is diluted to 200 μM with DTT buffer. From the 200 μM stock solution is made a 10 μM stock solution with 2% DMSO in DTT buffer. The two inhibitor solutions are used to make final [I] =100, 50, 20, 10, 5, 2, 1, 0.5 and 0 μM with 2% DMSO in DTT buffer in each reaction well (total inhibitor volume of 50 μl).
To each reaction well is added 20 μl of substrate (final concentration of 40 μM), 50 μl of inhibitor (at a concentration such that final dilution will produce the test concentration) and 20 μl of DTT buffer. The reaction plate (96 wells) is incubated at 37° C. for at least 5 minutes.
10 μl of the diluted protease is added to the reaction well while the reaction plate is shaking. Once shaken for 10 seconds, the plate is returned to the heating block at 37° C. (final reaction volume 100 μl.)
The reaction is incubated for 5 minutes at 37° C. The reaction is stopped by placing the reaction plate on the shaker and adding 20 μl of 10% trifluoroacetic acid (TFA) and shaking for 10 seconds. The amount of proteolysis is then determined by separation of noncleaved substrate and two cleaved products with reverse-phase HPLC, while measuring absorbance at 220 nm to determine the relative peak areas of the three components. The relative peak areas are used to calculate % conversion to product as a function of inhibitor concentration. The data are plotted as % Control (the ratio of % conversion in the presence and absence of inhibitor×100) versus inhibitor concentration and fitted with the equation Y=100/1+(X/IC50)^A, where IC50 is the inhibitor concentration at 50% inhibition and A is the slope of the inhibition curve.

[7] = tested on: HIV1iiib in H9 cells; experiment: Antiviral activity in H9 cells (acute HIV-1 infection, reverse transcriptase assay); assay type: cell-based; details: Human immunodeficiency virus 1, multiplicity of infection 0.01, 0.1% DMSO, read-out: Concentration for 50% Protection
Procedure: Using the general methods of Pauwels et al., (J. Virol. Methods, 16, 171-185, 1987) and Mann et al. (AIDS Research and Human Retroviruses, 253-255, 1989 (anti-viral assays of active HIV-1 infection were performed in the H9 cell line. Cultures were batch infected in 1 ml of RPM1 1640 media/10% fetal calf serum containing 10^5 infectious doses of HIV1iiib for an effective multiplicity of infection of 0.01. After 2 hours of viral absorption, cells were washed once and palted in 96-wellmicrotiter plates at a density of 10^4 cells per well. Test compounds were added to produce the desired concentration of drug and 0.1% DMSO in a final volume of 200 μl. Uninfected parallel cultures were maintained for XTT cytotoxicity assay at 7 days post infection. Cultures were tested for viral replication by reverse transcriptase assay at 4 and 7 days post infection.

[8] = tested on: HIV; details: R. Nagorny et al., AIDS 7: 129-130 (1993); cited from earlier work

| MIC [1] [µg/mL] | MIC [2] [µg/mL] | MIC [3] [µg/mL] | MIC [4] [µg/mL] | MIC [5] [µg/mL] | Structure (SMILES) | IC50 [6] [µM] | EC50 [7] [µM] | inhibition of cell-free and cell-mediated HIV infection (in words) [8] |
| --- | --- | --- | --- | --- | --- | --- | --- | --- |
| 25 (≈ 56.2 µM) | 25 (≈ 56.2 µM) | 25 (≈ 56.2 µM) | 100 (≈ 225 µM) | 25 (≈ 56.2 µM) | CC(C)c1ccccc1SC1=C(O)CC(CCc2ccccc2)(c2ccccc2)OC1=O (racemic) [Example 72, 5,6-Dihydro-4-hydroxy-3-(2-isopropylphenylthio)-6-phenyl-6-(2-phenylethyl)-2H-pyran-2-one] | – | – | – |
| 25 (≈ 49.7 µM) | 12.5 (≈ 24.9 µM) | 6.25 (≈ 12.4 µM) | 25 (≈ 49.7 µM) | 12.5 (≈ 24.9 µM) | Cc1ccc(C(C)C)c(SC2=C(O)CC(CCc3ccc4c(c3)OCO4)(c3ccccc3)OC2=O)c1 (stereo not drawn) [Example 133] | – | – | – |
| – | – | – | – | – | CC(=O)CC(c1ccccc1)c1c(O)c2ccccc2oc1=O (stereo not drawn) [Warfarin, 3-(α-acetonylbenzyl)-4-hydroxycoumarin] | – | – | inhibiting cell-free and cell-mediated HIV infection |

| Structure (SMILES) | MIC [1] [µg/mL] | MIC [2] [µg/mL] | MIC [3] [µg/mL] | MIC [4] [µg/mL] | MIC [5] [µg/mL] | IC50 [6] [µM] | EC50 [7] [µM] | inhibition of cell-free and cell-mediated HIV infection (in words) [8] |
| --- | --- | --- | --- | --- | --- | --- | --- | --- |
| O=C1OC(CCc2ccccc2)(c2ccccc2)CC(O)=C1SCc1ccc2c(c1)OCO2 (racemic) [Example 107, 3-(Benzo[1,3]dioxol-5-ylmethylthio)-5,6-dihydro-4-hydroxy-6-phenyl-6-(2-phenylethyl)-2H-pyran-2-one] | 50 (≈ 109 µM) | 100 (≈ 217 µM) | 50 (≈ 109 µM) | 50 (≈ 109 µM) | 50 (≈ 109 µM) | 0.11 | 8 | – |
